These results are taken from patent US7700560B2 (University of Maryland, Baltimore County, priority 2003, dated 2010).

As a reminder, the kinact is the rate constant of inactivation at saturating inhibitor. In general, Kd refers to the constant that tells how readily two partners part at equilibrium. One may read the IC50 as the midpoint of a concentration-inhibition curve. As usually defined, the Ki is the equilibrium dissociation constant of an inhibitor or competing ligand from its target.

Where two headings read alike, the source gives them in different places.

Data set [1] has as its target T1, human GlxI (Homo sapiens, UniProt Q04760).
T1 construct: hGlxI from human erythrocytes; from tissue; host or cells: human erythrocytes
T1 sequence (Q04760 2-184 limits assumed): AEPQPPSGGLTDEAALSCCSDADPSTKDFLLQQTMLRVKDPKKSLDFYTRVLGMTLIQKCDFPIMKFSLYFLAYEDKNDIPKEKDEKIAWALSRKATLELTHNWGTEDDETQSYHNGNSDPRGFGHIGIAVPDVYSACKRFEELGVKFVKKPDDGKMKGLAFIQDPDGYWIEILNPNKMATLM
Briefly: Irreversible inactivation kinetics of human GlxI. The data set is classed as biochemical. The procedure:
Incubation mixtures of enzyme (10 units/ml) and known concentrations of inactivator in phosphate buffer were separately incubated in plastic bullet tubes maintained at 25° C. in a water bath. Aliquots were removed, diluted into a quartz cuvette containing one ml GSH-methylglyoxal-thiohemiacetal, and the rate of product formation (ΔOD (240)) monitored as a function of time. From the initial rate of product formation, the activity of the enzyme was calculated. The slope of a plot of in (fraction of enzyme activity remaining) versus time gives the apparent first-order rate constant (kinact) for inactivation of hGlxI. A plot of kinact versus inactivator concentration (FIG. 7.) gives the dissociation constant (Kd and the maximum value of kinact).

For data set [2], the system named is DMS114 lung and DU145 prostate xenografts. Conditions: cited from earlier work.
The test system of data set [3] is murine leukemia L1210 cells. Conditions: cited from earlier work; for IC50: after 72 hours of incubation, diethyl ester prodrugs, read-out: IC50, growth of L1210 cells.
In data set [4] the target is T2, bovine liver GlxII (Bos taurus, UniProt Q3B7M2).
T2 construct: yeast GlxI (yGlxI) and bovine liver GlxII (bGlXII); from tissue; host or cells: bovine liver
The settings on record: cited from earlier work.

For data set [5], the system named is murine melanotic melanoma. Conditions: cited from earlier work; for efficacy relative to positive control adriamycin: at much higher dosages than adriamycin.
Data set [6] has as its system human colon HT29 tumors. Conditions: cited from earlier work.
In data set [7] the test system is human prostate PC3 tumors. The settings on record: cited from earlier work.
The target of data set [8] is T2, bovine liver GlxII. Nature of the data set: Competitive inhibition constants (Kis) with bovine liver GlxII. It is filed as biochemical. Conditions: sodium phosphate buffer, 50 mM, pH 7, 25° C.; mean (±S.D.) duplicate; read-out: Ki, bGlxII.
For data set [9], the target named is T1, human GlxI. Briefly: Competitive inhibition constants (Kis) with human GlxI. It is filed as biochemical. The procedure: (§1) Competitive inhibition constants (Kis) of bivalent and monovalent enzyme inhibitors with human GlxI or yeast GlxI (yGlxI) were obtained from the change in the initial rates of product formation at various concentrations of the substrate in the presence or absence of the inhibitor. To a 1 ml cuvette containing 50 mM sodium phosphate buffer, pH 7.0, 0.5 mM EDTA, 25° C. and different concentrations of thiohemiacetal substrates with fixed concentrations of inhibitor was added approximately 0.02 U of enzyme. The initial rates of product formation were followed on the basis of the increase in absorbancy at 240 nm. Inhibition constants were obtained by fitting the initial rate data to the equation for competitive inhibition.

The target of data set [10] is T3, yeast GlxI (Saccharomyces cerevisiae, UniProt P50107).
T3 sequence (P50107 1-326): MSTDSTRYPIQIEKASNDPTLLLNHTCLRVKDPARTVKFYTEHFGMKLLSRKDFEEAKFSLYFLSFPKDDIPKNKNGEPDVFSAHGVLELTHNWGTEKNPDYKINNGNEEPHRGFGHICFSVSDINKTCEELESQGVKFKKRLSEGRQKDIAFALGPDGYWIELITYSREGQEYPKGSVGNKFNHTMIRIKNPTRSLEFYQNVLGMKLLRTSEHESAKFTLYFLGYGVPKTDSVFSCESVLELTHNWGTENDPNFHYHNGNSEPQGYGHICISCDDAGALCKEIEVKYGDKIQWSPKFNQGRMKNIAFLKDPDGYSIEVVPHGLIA
Briefly: Competitive inhibition constants (Kis) with yeast GlxI. It is filed as biochemical. The settings on record: sodium phosphate buffer, 50 mM, pH 7, 25° C.; mean (±S.D.) duplicate; read-out: Ki, yGlxI. The procedure: as §1

Setting [11] is: glycerol (20%) in sodium phosphate buffer, pH 7, 25° C.
[12] abbreviates: sodium phosphate buffer, 50 mM, pH 7, 25° C., mean (±S.D.) triplicate, read-out: Ki, hGlxI.

Turning to `N[C@@H](CCC(=O)N[C@@H](CSCC(=O)OCCCCOC(=O)CBr)C(=O)NCC(=O)O)C(=O)O`, in data set [1] (setting [11]), the “irreversible inactivation of human GlxI” value is “irreversibly inactivate human GlxI” and the kinact was 0.000267 s⁻¹. Besides, in [1] (glycerol (20%) in sodium phosphate buffer, pH 7, 25° C., fit of kobsd vs concentration, read-out: Kd (dissociation constant) for inactivation of human GlxI), the equilibrium dissociation constant (Kd) was found to be 177 ± 43 µM.

Consider `N[C@@H](CCC(=O)N[C@@H](CSCc1ccc(Br)cc1)C(=O)NCC(=O)O)C(=O)O` [(S-p-bromobenzyl)glutathione (BBG), (S-p-bromobenzyl)glutathione], for which the “efficacy against human lung tumors (DMS114) in mice” value in [2] (dosages of 100 mg/kg) is “effective”. Moreover, the adverse side effects result in data set [2] (during the 21 days of administration, 100 mg/kg) is given as “no evidence of adverse side effects”.

Consider `CCOC(=O)CNC(=O)C(CSC(=O)N(O)c1ccc(Br)cc1)NC(=O)CCC(N)C(=O)OCC` (stereo not shown) [BHG(Et)2], for which the 50% inhibitory concentration (IC50) in data set [3] is 16 µM.

In the case of `N[C@@H](CCC(=O)N[C@@H](CSC(=O)N(O)c1ccc(Br)cc1)C(=O)NCC(=O)O)C(=O)O` [BHG, S—(N-p-bromophenyl-N-hydroxy-carbamoyl)glutathione], the “substrate for bovine liver GlxII” value in [4] is reported as “substrates for bovine liver GlxII”.

Regarding `CCOC(=O)CNC(=O)[C@H](CSC(=O)N(O)c1ccc(Cl)cc1)NC(=O)CC[C@H](N)C(=O)OCC` [CHG(Et)2], the “efficacy relative to positive control adriamycin” value in data set [5] is given as “as effective as the positive control adriamycin”. Also, in data set [5] (following i.v. bolus administration), the “accumulation of drug in melanoma” value was “significant accumulation of drug in melanoma”. Besides, the “toxicity to L1210 cells versus normal splenic lymphocytes in culture” value in data set [3] (Kavarana et al 1999) was “significantly more toxic to murine leukemia L1210 cells than to normal splenic lymphocytes”. Also, in data set [3], the IC50 was 5 µM. Moreover, the “efficacy against HT29 tumors” value in [6] (bolus administration) is recorded as “efficacy was not observed”. In [6] (continuous i.v. infusion), the “potency relative to positive control vincristin” value was “as good as the positive control vincristin” and the side-effects entry is “without any detectable side-effects”. Further, the haemopoetic toxicity entry in data set [7] (PC3 tumor-bearing mice) is listed as “without the cisplatin-associated haemopoetic toxicity”. Moreover, in [7] (bolus i.v. administration), the “growth of PC3 tumors” value was “inhibited the growth” and the “potency relative to positive control cisplatin” value is recorded as “as good as the positive control cisplatin”. In data set [7] (continuous infusion over 12 days), the “effect on PC3 tumors” value is listed as “no effect was observed”.

Turning to `NC(CCC(=O)NC(CSC(=O)N(O)c1ccc(Cl)cc1)C(=O)NCC(=O)OC1CCCC1)C(=O)OC1CCCC1` (stereo not shown) [CHG(cyclopentyl)2], in data set [5], the “efficacy relative to positive control adriamycin” value is listed as “as effective as the positive control adriamycin”.

On to `NCCC(=O)NC(CCC(=O)NC(CSC(=O)N(O)c1ccc(Cl)cc1)C(=O)NCC(=O)O)C(=O)O` (stereo not drawn) [CHG(β-Ala)n, n = 1], for which the Ki in [8] was determined as 1200 ± 12 nM; in data set [9] (setting [12]), 330 ± 6 nM.

On to `N[C@@H](CCC(=O)N[C@@H](CSC(=O)N(O)c1ccc(Cl)cc1)C(=O)NCC(=O)O)C(=O)O` [CHG, S—(N-p-chlorophenyl-N-hydroxycarbamoyl)glutathione, reference compound], for which, in data set [1] (reversible inhibitor present), the “protection of the enzyme from inactivation by BPG/BBG” value is reported as “protects the enzyme from inactivation”. Also, in data set [4], the “substrate for bovine liver GlxII” value is listed as “substrates for bovine liver GlxII”. The “binds more tightly to hGlxI than to yGlxI” value in data set [9] (ratio of Ki yGlxI / hGlxI) came to 78 fold.

On to `CCOC(=O)CNC(=O)C(CSC(=O)N(O)c1ccccc1)NC(=O)CCC(N)C(=O)OCC` (stereo not shown) [PHG(Et)2], for which the IC50 in [3] was 63 µM.

In the case of `CN(O)C(=O)SC[C@H](NC(=O)CC[C@H](N)C(=O)O)C(=O)NCC(=O)O` [S—(N-methyl-N-hydroxycarbamoyl)glutathione], the “substrate for bovine liver GlxII” value in [4] is “substrates for bovine liver GlxII”.

Consider `N[C@@H](CCC(=O)N[C@@H](CSC(=O)N(O)c1ccccc1)C(=O)NCC(=O)O)C(=O)O` [S—(N-phenyl-N-hydroxycarbamoyl)glutathione], for which the “substrate for bovine liver GlxII” value in data set [4] is listed as “substrates for bovine liver GlxII”.

Take `O=C(O)CNC(=O)[C@H](CSC(=O)N(O)c1ccc(Cl)cc1)NC(=O)CC[C@H](NC(=O)CCNC(=O)CCCCCCC(=O)NCCC(=O)N[C@@H](CCC(=O)N[C@@H](CSC(=O)N(O)c1ccc(Cl)cc1)C(=O)NCC(=O)O)C(=O)O)C(=O)O` [[CHG(β-Ala)n]2sub., n = 1, [CHG(β-ala)]2Suberate Diamide]: the inhibition constant Ki was 3 ± 0.2 µM in [10], 35 ± 4 nM in [8] and 70.1 ± 1.3 nM in [9] (setting [12]).

For `O=C(O)CNC(=O)C(CSC(=O)N(O)c1ccc(Cl)cc1)NC(=O)CCC(NC(=O)CCNC(=O)CCNC(=O)CCCCCCC(=O)NCCC(=O)NCCC(=O)NC(CCC(=O)NC(CSC(=O)N(O)c1ccc(Cl)cc1)C(=O)NCC(=O)O)C(=O)O)C(=O)O` (stereo not drawn) [[CHG(β-Ala)n]2sub., n = 2, [CHG(β-ala)2]2suberate diamide], the inhibition constant (Ki) is 50 ± 5 nM in [8] and 75.9 ± 7.4 nM in [9] (setting [12]).

`O=C(O)CNC(=O)C(CSC(=O)N(O)c1ccc(Cl)cc1)NC(=O)CCC(NC(=O)CCNC(=O)CCNC(=O)CCNC(=O)CCCCCCC(=O)NCCC(=O)NCCC(=O)NCCC(=O)NC(CCC(=O)NC(CSC(=O)N(O)c1ccc(Cl)cc1)C(=O)NCC(=O)O)C(=O)O)C(=O)O` (stereo not drawn) [[CHG(β-Ala)n]2sub., n = 3, [CHG(β-ala)3]2suberate diamide]: the inhibition constant (Ki) in data set [9] (setting [12]) was determined as 84.1 ± 2.4 nM.

`O=C(O)CNC(=O)C(CSC(=O)N(O)c1ccc(Cl)cc1)NC(=O)CCC(NC(=O)CCNC(=O)CCNC(=O)CCNC(=O)CCNC(=O)CCCCCCC(=O)NCCC(=O)NCCC(=O)NCCC(=O)NCCC(=O)NC(CCC(=O)NC(CSC(=O)N(O)c1ccc(Cl)cc1)C(=O)NCC(=O)O)C(=O)O)C(=O)O` (stereo not drawn) [[CHG(β-Ala)n]2sub., n = 4, [CHG (β-ala)4]2suberate diamide]: the inhibitory constant (Ki) in data set [10] stood at 9 ± 0.3 µM; in [9] (setting [12]), 59.6 ± 2 nM.

For `O=C(O)CNC(=O)C(CSC(=O)N(O)c1ccc(Cl)cc1)NC(=O)CCC(NC(=O)CCNC(=O)CCNC(=O)CCNC(=O)CCNC(=O)CCNC(=O)CCCCCCC(=O)NCCC(=O)NCCC(=O)NCCC(=O)NCCC(=O)NCCC(=O)NC(CCC(=O)NC(CSC(=O)N(O)c1ccc(Cl)cc1)C(=O)NCC(=O)O)C(=O)O)C(=O)O` (stereo not drawn) [[CHG(β-Ala)n]2sub., n = 5, [CHG (β-ala)5]2suberate diamide], the inhibition constant Ki in data set [9] (setting [12]) worked out at 7.5 ± 0.5 nM.

In the case of “N-(tri-beta-ala hydroxyethylamide ethylenediamine bis(hexanedioic acid O-carbonylethyl)S—(N-p-bromophenyl-N-hydroxy-carbamoyl)glutathione [polyBHG2-54]”, the Ki in [9] (competitive inhibition, read-out: Ki values, human GlxI) is 0.3 nM.

Consider “[CHG (β-ala)7]2suberate diamide [[CHG(β-Ala)n]2sub., n = 7]”, for which the inhibition constant Ki in [10] was 4.1 ± 0.5 µM; in data set [8], 79 ± 8 nM; in data set [9] (setting [12]), 0.97 ± 0.02 nM.
